Test results as given in US11098257B2, “Bioderived fuels and methods of making the same” (Alliance for Sustainable Energy, LLC, priority 2019, dated 2021).
In brackets after ≈: the same amount, converted by molar mass.

Legend:
Type in all cases: physicochemical
[1] = Lower heating value from bomb calorimeter HHV (D240) and hydrogen content; settings: measured value
Description: Heating Values. HHV was found using a bomb calorimeter to combust 15 mL of sample (D240), with LHV calculated using sample hydrogen content (D240, Section 10.5.1) measured using a LECO TruSpec CHN determinator. To find hydrogen content, samples were combusted in excess oxygen at 950° C. The amount of CO2 and H2O produced could then be quantified using IR and using an EDTA calibration standard the hydrogen wt % could be extracted.

[2] = Rapid small-scale oxidation test (RSSOT), PetroOxy induction time
Description: The next important consideration is that of safety and fuel quality upon storage of the novel blendstock. Oxidation stability of 4-butoxyheptane was examined experimentally. Two distinct characterizations were performed regarding oxidation potential during storage. The first utilized a rapid small-scale oxidation test (RSSOT) using a PetroOxy instrument to determine induction time, which indicates the potential for a fuel to oxidize during storage, which may result in quality degradation from formation of low molecular weight acids and insoluble polymers.

[3] = Storage stability aging per ASTM D4625, GC-MS profile; settings: GC-MS profile after 6 weeks of aging (simulating 6 months)
Description: Storage stability testing. Aging conditions to test storage stability of the target ether are based on the procedure of ASTM D4625 Standard Test Method for Middle Distillate Fuel Storage Stability. This method accelerates the oxidation rate of diesel fuel by approximately 4-fold, with one week under these conditions equivalent to approximately one month of storage at 21° C. It should be noted that this degree of acceleration has not been validated for ethers, but nonetheless provides a standard protocol for diesel range sample aging. Aging was conducted for 6 weeks (simulating 6 months) with measurement of peroxide concentration at 2-week intervals. Peroxide concentration was measured following AOCS method Cd 8b-90, modified for potentiometric end point detection and smaller sample size. A sample of isoamyl ether (>99%, non-stabilized, Sigma-Aldrich) was aged alongside the 4-butoxyheptane for comparison. Samples of 4-butoxyheptane before and after aging were analyzed by gas chromatography with mass spectrometry (GC-MS) in an attempt to identify components produced by oxidation (see Table 11 below). The ether samples were diluted volumetrically in acetone 1:10. Analysis was conducted with an Agilent 7890A GC coupled with an Agilent 5975C mass selective detector (MSD). […]

Flash point measurement = settings: measured value
Description: Flash point. D7094 was used to measure Tflash with an average error of ±1.3° C.

[4] = Water solubility, ether in aqueous layer by GC/MS; settings: thermodynamic from solid; purified ether, water saturated 1:5 by volume, left overnight
Description: Water Solubility. […] The mixed samples were left overnight to separate and the amount of ether in the aqueous layer was determined by GC/MS.

[5] = Boiling point (simulated distillation T90 D2887; blend by TGA); settings: measured value
Text: Boiling Point. Tboil of pure was estimated using T90 of a simulated distillation (D2887), with blend Tboil determined using thermogravimetric analysis (TGA).

Lower Heating Value [1] [mJ/kg]	Flashpoint (Flash point measurement) [°C]	Boiling Point [5] [°C]	SMILES	Lower Heating Value ([1]; listed as drawing 5) [mJ/kg]	induction period ([2]; neat ether, no antioxidant)	induction period with antioxidant ([2]; with 100 ppm butylated hydroxytoluene (BHT)) [min]	% Total Area [3] [%]	solubility [4] [µg/mL]
43	68	234	CCCCCCOC(CCC)CCC [4-hexoxyheptane]					
42	83	236	CCCCCC(CCCCC)OCC [6-ethoxyundecane]					

SMILES	Lower Heating Value [1] [mJ/kg]	Flashpoint (Flash point measurement) [°C]	Boiling Point [5] [°C]	Lower Heating Value ([1]; listed as drawing 5) [mJ/kg]	induction period ([2]; neat ether, no antioxidant)	induction period with antioxidant ([2]; with 100 ppm butylated hydroxytoluene (BHT)) [min]	% Total Area [3] [%]	solubility [4] [µg/mL]
CCCCOC(CCC)CCC [4-butoxyheptane]	39.2	64	198	39	about 23 minutes	> 60	94.90	15 (≈ 87.1 µM)
